Laboratory results reported in ChEMBL document CHEMBL4346715, “Antibacterial activity study of 1,2,4-triazole derivatives” (Eur J Med Chem, 2019).
Values after ≈ are worked out from the molar mass of the structure shown.

Tests used:
Assay type in all cases: functional
Bacillus cereus = test: Antibacterial activity against Bacillus cereus ATCC 10876 after 24 hrs by microdilution method; conditions: ATCC 10876, 24 h
Enterococcus faecalis = test: Antibacterial activity against Enterococcus faecalis ATCC 29212 after 24 hrs by microdilution method; conditions: ATCC 29212, 24 h
Staphylococcus aureus [1] = test: Antibacterial activity against Staphylococcus aureus ATCC 25923 after 24 hrs by microdilution method; conditions: ATCC 25923, 24 h
Proteus mirabilis = test: Antibacterial activity against Proteus mirabilis ATCC 35659 after 24 hrs by microdilution method; conditions: ATCC 35659, 24 h
Escherichia coli [2] = test: Antibacterial activity against Escherichia coli ATCC 25922 after 24 hrs by microdilution method; conditions: ATCC 25922, 24 h
Pseudomonas aeruginosa [3] = test: Antibacterial activity against Pseudomonas aeruginosa ATCC 27853 after 24 hrs by microdilution method; conditions: ATCC 27853, 24 h
Candida albicans = test: Antifungal activity against Candida albicans ATCC 50193 after 24 hrs by microdilution method; conditions: ATCC 50193, 24 h
Aspergillus brasiliensis = test: Antifungal activity against Aspergillus brasiliensis ATCC 16404 after 24 hrs by microdilution method; conditions: ATCC 16404, 24 h
Micrococcus luteus = test: Antibacterial activity against Micrococcus luteus incubated for 18 hrs post 30 mins pre-diffusion by disk diffusion method
Bacillus subtilis = test: Antibacterial activity against Bacillus subtilis incubated for 18 hrs post 30 mins pre-diffusion by disk diffusion method
Escherichia coli [4] = test: Antibacterial activity against Escherichia coli incubated for 18 hrs post 30 mins pre-diffusion by disk diffusion method
Listeria innocua = test: Antibacterial activity against Listeria innocua incubated for 18 hrs post 30 mins pre-diffusion by disk diffusion method
Listeria monocytogenes [5] = test: Antibacterial activity against Listeria monocytogenes ATCC 35152 after 24 hrs by broth microdilution method; conditions: ATCC 35152, 24 h
Pseudomonas aeruginosa [6] = test: Antibacterial activity against Pseudomonas aeruginosa ATCC 27853 after 24 hrs by broth microdilution method; conditions: ATCC 27853, 24 h
Listeria monocytogenes [7] = test: Potency index, ratio of ciprofloxacin MIC to test compound MIC for Listeria monocytogenes ATCC 35152 after 24 hrs by broth microdilution method
Pseudomonas aeruginosa [8] = test: Potency index, ratio of ciprofloxacin MIC to test compound MIC for Pseudomonas aeruginosa ATCC 27853 after 24 hrs by broth microdilution method
Staphylococcus aureus [9] = test: Antibacterial activity against methicillin-resistant Staphylococcus aureus incubated for 18 hrs post 30 mins pre-diffusion by disk diffusion method
Bacillus anthracis = test: Antibacterial activity against Bacillus anthracis incubated for 18 hrs post 30 mins pre-diffusion by disk diffusion method
Staphylococcus aureus [10] = test: Antibacterial activity against Staphylococcus aureus incubated for 18 hrs post 30 mins pre-diffusion by disk diffusion method

Row | Structure (SMILES) | MIC (Bacillus cereus) [µg/mL] | MIC (Enterococcus faecalis) [µg/mL] | MIC (Staphylococcus aureus [1]) [µg/mL] | MIC (Proteus mirabilis) [µg/mL] | MIC (Escherichia coli [2]) [µg/mL] | MIC (Pseudomonas aeruginosa [3]) [µg/mL] | MIC (Candida albicans) [µg/mL] | MIC (Aspergillus brasiliensis) [µg/mL] | MIC (Escherichia coli [4]) [µg/mL] | other results
1 | CCCCCCCCCCCCCCn1nnc(-c2n[nH]c(=S)n2-c2ccccc2)c1-c1n[nH]c(=S)n1-c1ccccc1 | 1 to 128 (≈ 1.62 to 208 µM) | 1 to 128 (≈ 1.62 to 208 µM) | 1 to 128 (≈ 1.62 to 208 µM) | 1 to 128 (≈ 1.62 to 208 µM) | 1 to 128 (≈ 1.62 to 208 µM) | 1 to 128 (≈ 1.62 to 208 µM) | 1 to 128 (≈ 1.62 to 208 µM) | 1 to 128 (≈ 1.62 to 208 µM) |  | 
2 | CC(C)N(Cc1ncn(C)n1)Cc1ncn(C)n1 |  |  |  |  |  |  |  |  | 7 to 15 (≈ 28.1 to 60.2 µM) | MIC (Micrococcus luteus): 7 to 15 µg/mL (≈ 28.1 to 60.2 µM); MIC (Bacillus subtilis): 7 to 15 µg/mL (≈ 28.1 to 60.2 µM); MIC (Listeria innocua): 7 to 15 µg/mL (≈ 28.1 to 60.2 µM)
3 | Cc1nc(-c2ccccc2)sc1-c1nnc(S)n1/N=C/c1cccs1 |  |  |  |  |  |  |  |  |  | MIC (Listeria monocytogenes [5]): 1.95 µg/mL (≈ 5.08 µM); MIC (Pseudomonas aeruginosa [6]): 1.95 µg/mL (≈ 5.08 µM); Ratio (Listeria monocytogenes [7]): 2; Ratio (Pseudomonas aeruginosa [8]): 2
4 | NC[C@H]1O[C@H](O[C@H]2[C@H](O)[C@@H](O[C@H]3O[C@H](CO)[C@@H](O)[C@H](N)[C@H]3O)[C@H](N)C[C@@H]2N)[C@H](O)[C@@H](O)[C@@H]1O [KANAMYCIN] |  |  |  |  |  |  |  |  |  | MIC (Staphylococcus aureus [9]): 31 to 1000 µg/mL (≈ 64 to 2060 µM); MIC (Bacillus anthracis): 31 to 1000 µg/mL (≈ 64 to 2060 µM)
5 | COC(=O)c1ncn(CN(Cn2cnc(C(=O)OC)n2)C(C)C)n1 |  |  |  |  |  |  |  |  | 7 to 15 (≈ 20.8 to 44.5 µM) | MIC (Micrococcus luteus): 7 to 15 µg/mL (≈ 20.8 to 44.5 µM); MIC (Bacillus subtilis): 7 to 15 µg/mL (≈ 20.8 to 44.5 µM); MIC (Listeria innocua): 7 to 15 µg/mL (≈ 20.8 to 44.5 µM)
6 | CC[C@H]1OC(=O)[C@H](C)[C@@H](O[C@H]2C[C@@](C)(OC)[C@@H](O)[C@H](C)O2)[C@H](C)[C@@H](O[C@@H]2O[C@H](C)C[C@H](N(C)C)[C@H]2O)[C@](C)(O)C[C@@H](C)C(=O)[C@H](C)[C@@H](O)[C@]1(C)O [ERYTHROMYCIN] |  |  |  |  |  |  |  |  |  | MIC (Staphylococcus aureus [9]): 31 to 1000 µg/mL (≈ 42.2 to 1360 µM); MIC (Bacillus anthracis): 31 to 1000 µg/mL (≈ 42.2 to 1360 µM)
7 | CCCCCCCCCCCCCCn1nnc(-c2n[nH]c(=S)n2N)c1-c1n[nH]c(=S)n1N | 1 to 16 (≈ 2.03 to 32.4 µM) | 1 to 16 (≈ 2.03 to 32.4 µM) | 1 to 16 (≈ 2.03 to 32.4 µM) | 1 to 16 (≈ 2.03 to 32.4 µM) | 1 to 16 (≈ 2.03 to 32.4 µM) | 1 to 16 (≈ 2.03 to 32.4 µM) | 1 to 16 (≈ 2.03 to 32.4 µM) | 1 to 16 (≈ 2.03 to 32.4 µM) |  | 
8 | COC(=O)c1ncn(CN(CCCO)Cn2cnc(C(=O)OC)n2)n1 |  |  |  |  |  |  |  |  | 7 to 15 (≈ 19.8 to 42.5 µM) | MIC (Micrococcus luteus): 7 to 15 µg/mL (≈ 19.8 to 42.5 µM); MIC (Bacillus subtilis): 7 to 15 µg/mL (≈ 19.8 to 42.5 µM); MIC (Listeria innocua): 7 to 15 µg/mL (≈ 19.8 to 42.5 µM)
9 | FC(F)(F)c1cc(-c2nnc(Sc3cc(Cl)nc(Sc4ccccc4)n3)[nH]2)cc(C(F)(F)F)c1 |  |  |  |  |  |  |  |  | 1.8 (≈ 3.37 µM) | MIC (Staphylococcus aureus [10]): 3.1 µg/mL (≈ 5.81 µM); MIC (Staphylococcus aureus [9]): 0.75 to 1.8 µg/mL (≈ 1.4 to 3.37 µM); MIC (Bacillus anthracis): 0.75 to 1.8 µg/mL (≈ 1.4 to 3.37 µM)
10 | Cc1nc(-c2ccccc2)sc1-c1nnc(S)n1/N=C/c1ccc([N+](=O)[O-])cc1 |  |  |  |  |  |  |  |  |  | MIC (Listeria monocytogenes [5]): 1.95 µg/mL (≈ 4.62 µM); MIC (Pseudomonas aeruginosa [6]): 1.95 µg/mL (≈ 4.62 µM); Ratio (Listeria monocytogenes [7]): 2; Ratio (Pseudomonas aeruginosa [8]): 2
11 | CN[C@H](CC(C)C)C(=O)N[C@H]1C(=O)N[C@@H](CC(N)=O)C(=O)N[C@H]2C(=O)N[C@H]3C(=O)N[C@H](C(=O)N[C@H](C(=O)O)c4cc(O)cc(O)c4-c4cc3ccc4O)[C@H](O)c3ccc(c(Cl)c3)Oc3cc2cc(c3O[C@@H]2O[C@H](CO)[C@@H](O)[C@H](O)[C@H]2O[C@H]2C[C@](C)(N)[C@H](O)[C@H](C)O2)Oc2ccc(cc2Cl)[C@H]1O [VANCOMYCIN] |  |  |  |  |  |  |  |  |  | MIC (Staphylococcus aureus [9]): 8 µg/mL (≈ 5.52 µM); MIC (Bacillus anthracis): 8 µg/mL (≈ 5.52 µM)
12 | O=C(O)c1cn(C2CC2)c2cc(N3CCNCC3)c(F)cc2c1=O [CIPROFLOXACIN] | 1 to 8 (≈ 3.02 to 24.1 µM) | 1 to 8 (≈ 3.02 to 24.1 µM) | 1 to 8 (≈ 3.02 to 24.1 µM) | 1 to 8 (≈ 3.02 to 24.1 µM) | 1 to 8 (≈ 3.02 to 24.1 µM) | 1 to 8 (≈ 3.02 to 24.1 µM) | 1 to 8 (≈ 3.02 to 24.1 µM) | 1 to 8 (≈ 3.02 to 24.1 µM) |  | MIC (Listeria monocytogenes [5]): 3.9 µg/mL (≈ 11.8 µM); MIC (Pseudomonas aeruginosa [6]): 3.9 µg/mL (≈ 11.8 µM)
13 | CCCCCCCCCCn1nnc(-c2n[nH]c(=S)n2-c2ccccc2)c1-c1n[nH]c(=S)n1-c1ccccc1 | 1 to 128 (≈ 1.79 to 229 µM) | 1 to 128 (≈ 1.79 to 229 µM) | 1 to 128 (≈ 1.79 to 229 µM) | 1 to 128 (≈ 1.79 to 229 µM) | 1 to 128 (≈ 1.79 to 229 µM) | 1 to 128 (≈ 1.79 to 229 µM) | 1 to 128 (≈ 1.79 to 229 µM) | 1 to 128 (≈ 1.79 to 229 µM) |  | 
14 | COc1ccccc1/C=N/n1c(S)nnc1-c1sc(-c2ccccc2)nc1C |  |  |  |  |  |  |  |  |  | MIC (Listeria monocytogenes [5]): 1.95 µg/mL (≈ 4.78 µM); MIC (Pseudomonas aeruginosa [6]): 1.95 µg/mL (≈ 4.78 µM); Ratio (Listeria monocytogenes [7]): 2; Ratio (Pseudomonas aeruginosa [8]): 2
15 | COC(=O)c1ncn(CNCn2cnc(C(=O)OC)n2)n1 |  |  |  |  |  |  |  |  | 7 to 15 (≈ 23.7 to 50.8 µM) | MIC (Micrococcus luteus): 7 to 15 µg/mL (≈ 23.7 to 50.8 µM); MIC (Bacillus subtilis): 7 to 15 µg/mL (≈ 23.7 to 50.8 µM); MIC (Listeria innocua): 7 to 15 µg/mL (≈ 23.7 to 50.8 µM)
16 | CCCCCCCCCCCCCCCCn1nnc(-c2n[nH]c(=S)n2-c2ccccc2)c1-c1n[nH]c(=S)n1-c1ccccc1 | 1 to 128 (≈ 1.55 to 199 µM) | 1 to 128 (≈ 1.55 to 199 µM) | 1 to 128 (≈ 1.55 to 199 µM) | 1 to 128 (≈ 1.55 to 199 µM) | 1 to 128 (≈ 1.55 to 199 µM) | 1 to 128 (≈ 1.55 to 199 µM) | 1 to 128 (≈ 1.55 to 199 µM) | 1 to 128 (≈ 1.55 to 199 µM) |  | 
